# Source: patent US6620828B2, “Thiazole compounds and pharmaceutical compositions for inhibiting protein kinases and methods for their use” (Agouron Pharmaceuticals, Inc., priority 1999, dated 2003)
# Molecular target: T1, FL-CHK1 (Homo sapiens, UniProt O14757)
# T1 construct: C-terminally His-tagged full-length human CHK1 (FL-CHK1); 6xHis (C); made in house; host or cells: baculovirus/insect cells
# T1 sequence (O14757 1-476): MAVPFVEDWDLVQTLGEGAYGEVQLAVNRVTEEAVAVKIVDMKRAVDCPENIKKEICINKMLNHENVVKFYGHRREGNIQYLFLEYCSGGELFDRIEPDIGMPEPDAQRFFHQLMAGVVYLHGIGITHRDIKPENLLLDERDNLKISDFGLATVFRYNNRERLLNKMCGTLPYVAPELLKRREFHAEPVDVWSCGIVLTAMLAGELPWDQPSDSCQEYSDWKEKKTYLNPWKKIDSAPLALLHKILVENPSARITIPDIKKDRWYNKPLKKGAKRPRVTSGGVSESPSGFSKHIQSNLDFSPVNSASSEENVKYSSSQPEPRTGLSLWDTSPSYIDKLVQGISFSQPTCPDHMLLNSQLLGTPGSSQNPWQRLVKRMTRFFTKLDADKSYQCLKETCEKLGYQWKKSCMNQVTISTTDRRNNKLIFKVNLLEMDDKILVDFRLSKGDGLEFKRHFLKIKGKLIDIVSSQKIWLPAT
# Assay: CHK1 assay
# Format: biochemical
# Design: CHK1^b: unit not given here
# Conditions: Table A combinatorial examples; footnote b not given
# Text: CHK-1 Construct for Assay: C-terminally His-tagged full-length human CHK1 (FL-CHK1) was expressed using the baculovirus/insect cell system. It contains 6 histidine residues (6×His-tag) at the C-terminus of the 476 amino acid human CHK1. The protein was purified by conventional chromatographic techniques.
# The production of ADP from ATP that accompanies phosphoryl transfer to the synthetic substrate peptide Syntide-2 ([…]) was coupled to oxidation of NADH using phosphoenolpyruvate (PEP) through the actions of pyruvate kinase (PK) and lactic dehydrogenase (LDH). The oxidation of NADH was monitored by following the decrease of absorbance at 340 nm (ε340=6.22 cm^−1 mM^−1) using a HP8452 spectrophotometer. Typical reaction solutions contained: […]; 0.15 mM NADH; 28 units of LDH/ml; 16 units of PK/ml; 3 mM DTT; 0.125 mM Syntide-2; 0.15 mM ATP; 25 mM MgCl2 in 50 mM TRIS, pH 7.5; and 400 mM NaCl. Assays were initiated with 10 nM of FL-CHK1. Ki values were determined by measuring initial enzyme activity in the presence of varying concentrations of test compounds. The data were analyzed using Enzyme Kinetic and Kaleidagraph software.
row,Structure (SMILES),CHK1^b
1,COc1cc(Nc2nc(N)c(-c3nc(-c4cccc(OC(=O)c5ccccc5)c4)cs3)s2)cc(OC)c1OC,23.9
2,COc1cc(Nc2nc(N)c(-c3nc(-c4ccccc4[N+](=O)O)cs3)s2)cc(OC)c1OC,36.6
3,COc1cc(Nc2nc(N)c(-c3nc(-c4ccc(C(F)(F)F)cc4)cs3)s2)cc(OC)c1OC,8.5
4,COc1cc(Nc2nc(N)c(-c3nc(-c4ccccc4)cs3)s2)cc(OC)c1OC [drawing 358],21.1
5,COc1cccc(-c2csc(-c3sc(Nc4cc(OC)c(OC)c(OC)c4)nc3N)n2)c1,21.2
6,COc1cc(Nc2nc(N)c(-c3nc(-c4cc(C)c(O)c(C)c4)cs3)s2)cc(OC)c1OC,27.9
7,COc1cc(Nc2nc(N)c(-c3nc(-c4ccc(Cl)c(C)c4)cs3)s2)cc(OC)c1OC,11.7
8,COc1cc(Nc2nc(N)c(-c3nc(-c4cccc(Br)c4)cs3)s2)cc(OC)c1OC,13.5
9,COc1cc(Nc2nc(N)c(-c3nc(-c4ccc5c(c4)OCCO5)cs3)s2)cc2c1OCCO2,32.9
10,COc1ccccc1-c1csc(-c2sc(Nc3cc(OC)c(OC)c(OC)c3)nc2N)n1,20
11,COc1ccc(OC)c(-c2csc(-c3sc(Nc4cc(OC)c(OC)c(OC)c4)nc3N)n2)c1,6.1
12,COc1cc(Nc2nc(N)c(-c3nc(-c4ccc(C#N)cc4)cs3)s2)cc(OC)c1OC,10.3
13,COc1cc(Nc2nc(N)c(-c3nc(-c4cc(C(=O)C(Cl)(Cl)Cl)n(C)c4)cs3)s2)cc(OC)c1OC,6.4
14,COc1cc(Nc2nc(N)c(-c3nc(-c4cccc([N+](=O)[O-])c4)cs3)s2)cc(OC)c1OC,8.8
15,COc1cc(Nc2nc(N)c(-c3nc(-c4sc5ccc(Cl)cc5c4C)cs3)s2)cc2c1OCCO2 [drawing 361],48.7
16,COc1cc(Nc2nc(N)c(-c3nc(-c4ccccc4)cs3)s2)cc(OC)c1OC [drawing 372],14.1
17,COc1cc(Nc2nc(N)c(-c3nc(-c4ccc(F)c(F)c4)cs3)s2)cc(OC)c1OC,16.5
18,COc1cc(Nc2nc(N)c(-c3nc(-c4ccccc4OC(=O)c4ccccc4)cs3)s2)cc(OC)c1OC,0.5
19,COc1cc(Nc2nc(N)c(-c3nc(-c4ccc5c(c4)CCC(=O)N5)cs3)s2)cc2c1OCCO2,31.9
20,COc1cc(Nc2nc(N)c(-c3nc(-c4c(-c5ccccc5)noc4C)cs3)s2)cc(OC)c1OC,17.9
21,COc1cc(Nc2nc(N)c(-c3nc(-c4cc(C)sc4C)cs3)s2)cc(OC)c1OC,46.3
22,COc1cc(Nc2nc(N)c(-c3nc(-c4c(C)c(C)c(C)c(C)c4C)cs3)s2)cc(OC)c1OC,48.3

# Molecular target: CDK2/Cyclin A complex (Homo sapiens, UniProt P24941)
# Assay: CDK2/Cyclin A assay
# Format: biochemical
# Design: CDK2^c: concentration or dose not given beside the values
# Conditions: Table A combinatorial examples; footnote c not given
# Text: CDK2/Cyclin A Construct for Assay: CDK2 was purified using published methodology (Rosenblatt et al., J. Mol. Biol., 230, 1317-1319 (1993)) from insect cells that had been infected with a baculovirus expression vector. Cyclin A was purified from E. coli cells expressing full-length recombinant cyclin A, and a truncated cyclin A construct was generated by limited proteolysis and purified as described previously (Jeffrey et al., Nature, 376, 313-320 (Jul. 27, 1995)).
# CDK2/Cyclin A and CDK4/Cyclin D Assays
# Cyclin-dependent kinase activity was measured by quantifying the enzyme-catalyzed, time-dependent incorporation of radioactive phosphate from [^32P]ATP into a recombinant fragment of the retinoblastoma protein. Unless noted otherwise, assays were performed in 96-well plates in a total volume of 50 μL, in the presence of 10 mM HEPES (N-[2-hydroxyethyl]piperazine-N′-[2-ethanesulfonic acid]) (pH 7.4), 10 mM MgCl2, 25 μM adenosine triphosphate (ATP), 1 mg/mL ovalbumin, 5 μg/mL leupeptin, 1 mM dithiothreitol, 10 mM β-glycerophosphate, 0.1 mM sodium vanadate, 1 mM sodium fluoride, 2.5 mM ethylene glycol-bis(β-aminoethyl ether)-N,N,N′N′-tetraacetic acid (EGTA), 2% (v/v) dimethylsulfoxide, and 0.03-0.2 μCi [^32P]ATP. The substrate (0.3-0.5 μg) was purified recombinant retinoblastoma protein fragment (Rb) (residues 386-928 of the native retinoblastoma protein; 62.3 kDa, containing the majority of the phosphorylation sites found in the native 106-kDa protein, as well as a tag of six histidine residues for ease of purification). Reactions were initiated with CDK2 (150 nM CDK2/Cyclin A complex) or CDK4 (50 nM CDK4/Cyclin D3 complex), incubated at 30° C., and terminated after 20 minutes by the addition of ethylenediaminetetraacetic acid EDTA) to 250 mM. The phosphorylated substrate was then captured on a nitrocellulose membrane using a 96-well filtration manifold, and unincorporated radioactivity was removed by repeated washing with 0.85% phosphoric acid. Radioactivity was quantified by exposing the dried nitrocellulose membranes to a phosphorimager. Apparent Ki values were measured by assaying enzyme activity in the presence of different compound concentrations and subtracting the background radioactivity measured in the absence of enzyme. The kinetic parameters (kcat, Km for ATP) were measured for each enzyme under the usual assay conditions by determining the dependence of initial rates on ATP concentration. The data were fit to an equation for competitive inhibition using Kaleidagraph (Synergy Software), or were fit to an equation for competitive tight-binding inhibition using the software KineTic (BioKin, Ltd.). Measured Ki values for known inhibitors against CDK4 and CDK2 agreed with published IC50 values. The specific activity of CDK4 was the same whether complexed to full-length cyclin D3 or the truncated Cyclin D3 construct; both complexes also yielded very similar Ki values for selected inhibitors.
row,Structure (SMILES),CDK2^c
1,COc1cc(Nc2nc(N)c(-c3nc(-c4cccc(OC(=O)c5ccccc5)c4)cs3)s2)cc(OC)c1OC,−12.3
2,COc1cc(Nc2nc(N)c(-c3nc(-c4ccccc4[N+](=O)O)cs3)s2)cc(OC)c1OC,1.9
3,COc1cc(Nc2nc(N)c(-c3nc(-c4ccc(C(F)(F)F)cc4)cs3)s2)cc(OC)c1OC,13.9
4,COc1cc(Nc2nc(N)c(-c3nc(-c4ccccc4)cs3)s2)cc(OC)c1OC [drawing 358],−0.2
5,COc1cccc(-c2csc(-c3sc(Nc4cc(OC)c(OC)c(OC)c4)nc3N)n2)c1,−0.4
6,COc1cc(Nc2nc(N)c(-c3nc(-c4cc(C)c(O)c(C)c4)cs3)s2)cc(OC)c1OC,28.4
7,COc1cc(Nc2nc(N)c(-c3nc(-c4ccc(Cl)c(C)c4)cs3)s2)cc(OC)c1OC,−4.4
8,COc1cc(Nc2nc(N)c(-c3nc(-c4cccc(Br)c4)cs3)s2)cc(OC)c1OC,15.6
9,COc1cc(Nc2nc(N)c(-c3nc(-c4ccc5c(c4)OCCO5)cs3)s2)cc2c1OCCO2,5.4
10,COc1ccccc1-c1csc(-c2sc(Nc3cc(OC)c(OC)c(OC)c3)nc2N)n1,−3.5
11,COc1ccc(OC)c(-c2csc(-c3sc(Nc4cc(OC)c(OC)c(OC)c4)nc3N)n2)c1,12.2
12,COc1cc(Nc2nc(N)c(-c3nc(-c4ccc(C#N)cc4)cs3)s2)cc(OC)c1OC,15.6
13,COc1cc(Nc2nc(N)c(-c3nc(-c4cc(C(=O)C(Cl)(Cl)Cl)n(C)c4)cs3)s2)cc(OC)c1OC,3.9
14,COc1cc(Nc2nc(N)c(-c3nc(-c4cccc([N+](=O)[O-])c4)cs3)s2)cc(OC)c1OC,6.6
15,COc1cc(Nc2nc(N)c(-c3nc(-c4sc5ccc(Cl)cc5c4C)cs3)s2)cc2c1OCCO2 [drawing 361],7.3
16,COc1cc(Nc2nc(N)c(-c3nc(-c4ccccc4)cs3)s2)cc(OC)c1OC [drawing 372],−1
17,COc1cc(Nc2nc(N)c(-c3nc(-c4ccc(F)c(F)c4)cs3)s2)cc(OC)c1OC,−5
18,COc1cc(Nc2nc(N)c(-c3nc(-c4ccccc4OC(=O)c4ccccc4)cs3)s2)cc(OC)c1OC,4.6
19,COc1cc(Nc2nc(N)c(-c3nc(-c4ccc5c(c4)CCC(=O)N5)cs3)s2)cc2c1OCCO2,−7.8
20,COc1cc(Nc2nc(N)c(-c3nc(-c4c(-c5ccccc5)noc4C)cs3)s2)cc(OC)c1OC,13.6
21,COc1cc(Nc2nc(N)c(-c3nc(-c4cc(C)sc4C)cs3)s2)cc(OC)c1OC,7.3
22,COc1cc(Nc2nc(N)c(-c3nc(-c4c(C)c(C)c(C)c(C)c4C)cs3)s2)cc(OC)c1OC,19.8
